Laboratory results reported in patent publication US10538567B2, “Compounds as peptidic trigonal GLP1/glucagon/GIP receptor agonists” (priority 2016, dated 2020).
Numbered stars: 1 amine (or outer) side, 2 acyl side, 3 side chain; on linkers, the order of the positions; unused ones are H or OH. Square brackets hold non-standard residues; d marks the D form. Side chains are listed from the residue outwards. Peptide text beside a SMILES is read from it. * marks the point of attachment. γGlu = O=C(O)[C@H](CCC(=O)[*:2])N[*:1]; Palmitoyl = CCCCCCCCCCCCCCCC(=O)*; Aib = CC(C)(N)C(=O)O

Key:
[1] = system: female diabetic db/db mice; test: Acute effects after s.c. treatment on blood glucose in non-fasting female diabetic db/db mice; type: in vivo; settings: single 30 μg/kg s.c.
Protocol: Female healthy, lean BKS.Cg-(lean)/OlaHsd and diabetes-prone, obese BKS.Cg-+Lepr^db/+Lepr^db/OlaHsd mice were ordered group housed from Envigo RMS Inc., shipped group housed and remained group housed in shoebox caging with wood chip bedding until day 15 of the predose phase. At the study start mice were approximately 12 weeks old.
Mice were housed under vivarium conditions including a 12 h light/dark cycle (light phase 04:00 AM-4:00 PM), room temperatures between 23-26° C. and a relative humidity between 30-70%. All animals had free access to water and Purina Fomulab Diet 5008.
On predose day 9 blood glucose and body mass (approximately between 08:00-10:00 AM) as well as HbA1c measurements were performed. On day 15 of the predose phase animals were assigned to treatment groups (n=8) and to new cages to match mean HbA1c and body masses between all db/db groups. An age-matched lean group was included in the study as a healthy, lean reference.
Prior to day 1 of the dosing phase, the test article was diluted with Phosphate Buffered Saline (PBS, Gibco, without CaCl2 and MgCl2) to a concentration of 1 mg/mL and aliquots of this stock solution were stored at approximately ≤−60° C. On day 1 of the dosing phase the stock aliquot was thawed and the injected test article solution was prepared fresh by diluting it with PBS to achieve the desired concentration.
On Day 1 of the dosing phase db/db mice were either treated once with a s.c. injection of PBS-vehicle or 30 μg/kg test article. The lean reference group was treated once with a s.c. injection of PBS-vehicle. The dosing was initiated and completed between 08:00 and 10:00 AM. The applied volume was 5 ml/kg and the dose was adjusted to the most recent body mass recording of each individual.
Animals had unlimited access to water and feed during the experiment. On day 1 of the dosing phase approximately 5 μL of blood were collected via tail clips at minute −30 and 0 prior to any other inlife activities. At minute 0 mice received a s.c. dose of either PBS-vehicle or 30 μg/kg test article. Further blood samples were harvested at hour 0.25, 0.5, 1, 1.5, 2, 3, 4, 6, 8, and 24 post-dose. Glucose measurements were performed in whole blood using AlphaTRAK glucometers. If the glucose concentrations of two measurements differed by more than 20 mg/dL a third value was recorded. The Area Under the Curve (AUC) for blood glucose was calculated via the trapezoid method and for the duration of the 24 post-dose hours.
In the Figures data are depicted as means±SEM. […] A One Way Analysis of Variance and multiple comparisons (Dunnett's Method) were performed comparing the group of diabetic, obese db/db vehicle mice (n=8) with each diabetic, obese db/db test article treated mice (n=8). […] Non-diabetic, lean-vehicle group data are depicted in the Figures serving as a reference dataset for the non-obese, non-diabetic state.

[2] = Chemical stability assessment, UPLC-UV purity loss in buffer system A; type: physicochemical; settings: 1 mg/ml, 25 mM acetate buffer pH 4.5 with m-cresol
Procedure, shortened: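 Peptide at 1 mg/mL pure compound (purity-corrected) in 25 mM acetate buffer pH 4.5 with L-methionine, m-cresol and glycerol was sterile-filtered and stored 28 days at 5 and 40° C. UPLC-UV purity (peptide peak area/total area) was compared with the starting value to give relative purity loss in %.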

[3] = Thioflavin T (ThT) assay for physical stability (fibrillation); type: physicochemical; settings: 3 mg/ml, 100 mM acetate pH 4.5 with m-cresol, 37° C. shaking
Procedure, shortened: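 Peptides at 3 mg/ml final with 100 μM ThT final in 100 mM acetate pH 4.5 containing 2.7 mg/mL m-cresol, eight replicates. Stressed at 37° C by repeated cycles of 10 s shaking at 960 rpm and 50 s rest. Fluorescence read every 20 minutes; lag time in hours taken from the sigmoidal kinetic curve.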

| Structure (SMILES) | mean blood glucose concentration 24 hours post-dose relative to baseline [1] | Chemical stability [relative purity loss 28 days 40° C.] (%) at pH 4.5 [2] | Lag time before increase [3] | time to normalise hyperglycemia to the non-fasting blood glucose concentrations of lean reference mice [1] |
| --- | --- | --- | --- | --- |
| CCCCCCCCCCCCCCCC(=O)N[C@@H](CCC(=O)N[C@@H](CCC(=O)NCCCC[C@H](NC(=O)[C@H](CC(C)C)NC(=O)[C@H](CCCCN)NC(=O)[C@H](CO)NC(=O)[C@H](CC(C)C)NC(=O)[C@H](CC(=O)O)NC(=O)[C@H](CO)NC(=O)[C@@H](NC(=O)[C@H](Cc1ccccc1)NC(=O)[C@@H](NC(=O)CNC(=O)[C@H](Cc1c[nH]cn1)NC(=O)C(C)(C)NC(=O)[C@@H](N)Cc1c[nH]cn1)[C@@H](C)O)[C@@H](C)O)C(=O)N[C@@H](CCC(=O)O)C(=O)N[C@@H](CCC(=O)O)C(=O)N[C@@H](CCC(N)=O)C(=O)N[C@@H](CCCNC(=N)N)C(=O)N[C@@H](CCC(N)=O)C(=O)NC(C)(C)C(=O)N[C@@H](CCC(=O)O)C(=O)N[C@@H](Cc1ccccc1)C(=O)N[C@H](C(=O)N[C@@H](CCC(=O)O)C(=O)N[C@@H](Cc1c[nH]c2ccccc12)C(=O)N[C@@H](CC(C)C)C(=O)N[C@@H](CCCCN)C(=O)N[C@@H](C)C(=O)NCC(=O)NCC(=O)N1CCC[C@H]1C(=O)N1CCC[C@H]1C(=O)N[C@@H](CO)C(=O)NC(C)(C)C(=O)N[C@@H](CCCCN)C(=O)N1CCC[C@H]1C(=O)N1CCC[C@H]1C(=O)N1CCC[C@H]1C(=O)N[C@@H](CCCCN)C(N)=O)[C@@H](C)CC)C(=O)O)C(=O)O [SEQ ID NO: 10, H-Aib-H-G-T-F-T-S-D-L-S-K-L-K[gGlu-gGlu-Palm]-E-E-Q-R-Q-Aib-E-F-I-E-W-L-K-A-G-G-P-P-S-Aib-K-P-P-P-K-NH2] | at or close to baseline | 10.6% | >45 h | – |
| CCCCCCCCCCCCCCCC(=O)N[C@@H](CCC(=O)N[C@@H](CCC(=O)NCCCC[C@H](NC(=O)[C@H](CC(C)C)NC(=O)[C@H](CCCCN)NC(=O)[C@H](CO)NC(=O)[C@H](CC(C)C)NC(=O)[C@H](CC(=O)O)NC(=O)[C@H](CO)NC(=O)[C@@H](NC(=O)[C@H](Cc1ccccc1)NC(=O)[C@@H](NC(=O)CNC(=O)[C@H](Cc1c[nH]cn1)NC(=O)C(C)(C)NC(=O)[C@@H](N)Cc1c[nH]cn1)[C@@H](C)O)[C@@H](C)O)C(=O)N[C@@H](CCC(=O)O)C(=O)N[C@@H](CCC(=O)O)C(=O)N[C@@H](CCC(N)=O)C(=O)N[C@@H](CCCNC(=N)N)C(=O)N[C@@H](CCC(N)=O)C(=O)NC(C)(C)C(=O)N[C@@H](CCC(=O)O)C(=O)N[C@@H](Cc1ccccc1)C(=O)N[C@H](C(=O)N[C@@H](CCC(=O)O)C(=O)N[C@@H](Cc1c[nH]c2ccccc12)C(=O)N[C@@H](CC(C)C)C(=O)N[C@@H](CCCCN)C(=O)N[C@@H](C)C(=O)N[C@H](C)C(=O)NCC(=O)N1CCC[C@H]1C(=O)N1CCC[C@H]1C(=O)N[C@@H](CO)C(=O)NC(C)(C)C(=O)N[C@@H](CCCCN)C(=O)N1CCC[C@H]1C(=O)N1CCC[C@H]1C(=O)N1CCC[C@H]1C(=O)N[C@@H](CCCCN)C(N)=O)[C@@H](C)CC)C(=O)O)C(=O)O [SEQ ID NO: 11, H-Aib-H-G-T-F-T-S-D-L-S-K-L-K[gGlu-gGlu-Palm]-E-E-Q-R-Q-Aib-E-F-I-E-W-L-K-A-dAla-G-P-P-S-Aib-K-P-P-P-K-NH2] (H-H[Aib]HGTFTSDLSKLK([γGlu-γGlu-Palmitoyl])EEQRQ[Aib]EFIEWLKA[dA]GPPS[Aib]KPPPK-NH2) | still below baseline concentrations | 8.8% | >45 h | ≤ 6 h |
| CCCCCCCCCCCCCCCC(=O)N[C@@H](CCC(=O)N[C@@H](CCC(=O)NCCCC[C@H](NC(=O)[C@H](CC(C)C)NC(=O)[C@H](CCCCN)NC(=O)[C@H](CO)NC(=O)[C@H](CC(C)C)NC(=O)[C@H](CC(=O)O)NC(=O)[C@H](CO)NC(=O)[C@@H](NC(=O)[C@H](Cc1ccccc1)NC(=O)[C@@H](NC(=O)CNC(=O)[C@H](Cc1c[nH]cn1)NC(=O)C(C)(C)NC(=O)[C@@H](N)Cc1c[nH]cn1)[C@@H](C)O)[C@@H](C)O)C(=O)N[C@@H](CCC(=O)O)C(=O)N[C@@H](CCC(=O)O)C(=O)N[C@@H](CCC(N)=O)C(=O)N[C@@H](CCCNC(=N)N)C(=O)N[C@@H](CCC(N)=O)C(=O)NC(C)(C)C(=O)N[C@@H](CCC(=O)O)C(=O)N[C@@H](Cc1ccccc1)C(=O)N[C@H](C(=O)N[C@@H](CCC(=O)O)C(=O)N[C@@H](Cc1c[nH]c2ccccc12)C(=O)N[C@@H](CC(C)C)C(=O)N[C@@H](CCCCN)C(=O)N[C@@H](C)C(=O)NCC(=O)NCC(=O)N[C@@H](Cc1c[nH]cn1)C(=O)N1CCC[C@H]1C(=O)N[C@@H](CO)C(=O)NC(C)(C)C(=O)N[C@@H](CCCCN)C(=O)N1CCC[C@H]1C(=O)N1CCC[C@H]1C(=O)N1CCC[C@H]1C(=O)N[C@@H](CCCCN)C(N)=O)[C@@H](C)CC)C(=O)O)C(=O)O [SEQ ID NO: 12, H-Aib-H-G-T-F-T-S-D-L-S-K-L-K[gGlu-gGlu-Palm]-E-E-Q-R-Q-Aib-E-F-I-E-W-L-K-A-G-G-H-P-S-Aib-K-P-P-P-K-NH2] | at or close to baseline | 11.9% | >45 h | – |
| CCCCCCCCCCCCCCCC(=O)N[C@@H](CCC(=O)N[C@@H](CCC(=O)NCCCC[C@H](NC(=O)[C@H](CC(C)C)NC(=O)[C@H](CCCCN)NC(=O)[C@H](CO)NC(=O)[C@H](CC(C)C)NC(=O)[C@H](CC(=O)O)NC(=O)[C@H](CO)NC(=O)[C@@H](NC(=O)[C@H](Cc1ccccc1)NC(=O)[C@@H](NC(=O)CNC(=O)[C@H](Cc1c[nH]cn1)NC(=O)C(C)(C)NC(=O)[C@@H](N)Cc1c[nH]cn1)[C@@H](C)O)[C@@H](C)O)C(=O)N[C@@H](CCC(=O)O)C(=O)N[C@@H](CCC(=O)O)C(=O)N[C@@H](CCC(N)=O)C(=O)N[C@@H](CCCNC(=N)N)C(=O)N[C@@H](CCC(N)=O)C(=O)NC(C)(C)C(=O)N[C@@H](CCC(=O)O)C(=O)N[C@@H](Cc1ccccc1)C(=O)N[C@H](C(=O)N[C@@H](CCC(=O)O)C(=O)N[C@@H](Cc1c[nH]c2ccccc12)C(=O)N[C@@H](CC(C)C)C(=O)N[C@@H](CCCCN)C(=O)N[C@@H](C)C(=O)N[C@H](C)C(=O)NCC(=O)N[C@@H](Cc1c[nH]cn1)C(=O)N1CCC[C@H]1C(=O)N[C@@H](CO)C(=O)NC(C)(C)C(=O)N[C@@H](CCCCN)C(=O)N1CCC[C@H]1C(=O)N1CCC[C@H]1C(=O)N1CCC[C@H]1C(=O)N[C@@H](CCCCN)C(N)=O)[C@@H](C)CC)C(=O)O)C(=O)O [SEQ ID NO: 13, H-Aib-H-G-T-F-T-S-D-L-S-K-L-K[gGlu-gGlu-Palm]-E-E-Q-R-Q-Aib-E-F-I-E-W-L-K-A-dAla-G-H-P-S-Aib-K-P-P-P-K-NH2] (H-H[Aib]HGTFTSDLSKLK([γGlu-γGlu-Palmitoyl])EEQRQ[Aib]EFIEWLKA[dA]GHPS[Aib]KPPPK-NH2) | at or close to baseline | 10.5% | >45 h | – |
